This passage reports IC50 results from US8916565B2, “Pyrrolopyrazine-spirocyclic piperidine amides as modulators of ion channels” (priority 2011, dated 2014).

Structures are written as SMILES.

Chain of human NaV subtype, like NaV 1.7 (Q15858 whole entry): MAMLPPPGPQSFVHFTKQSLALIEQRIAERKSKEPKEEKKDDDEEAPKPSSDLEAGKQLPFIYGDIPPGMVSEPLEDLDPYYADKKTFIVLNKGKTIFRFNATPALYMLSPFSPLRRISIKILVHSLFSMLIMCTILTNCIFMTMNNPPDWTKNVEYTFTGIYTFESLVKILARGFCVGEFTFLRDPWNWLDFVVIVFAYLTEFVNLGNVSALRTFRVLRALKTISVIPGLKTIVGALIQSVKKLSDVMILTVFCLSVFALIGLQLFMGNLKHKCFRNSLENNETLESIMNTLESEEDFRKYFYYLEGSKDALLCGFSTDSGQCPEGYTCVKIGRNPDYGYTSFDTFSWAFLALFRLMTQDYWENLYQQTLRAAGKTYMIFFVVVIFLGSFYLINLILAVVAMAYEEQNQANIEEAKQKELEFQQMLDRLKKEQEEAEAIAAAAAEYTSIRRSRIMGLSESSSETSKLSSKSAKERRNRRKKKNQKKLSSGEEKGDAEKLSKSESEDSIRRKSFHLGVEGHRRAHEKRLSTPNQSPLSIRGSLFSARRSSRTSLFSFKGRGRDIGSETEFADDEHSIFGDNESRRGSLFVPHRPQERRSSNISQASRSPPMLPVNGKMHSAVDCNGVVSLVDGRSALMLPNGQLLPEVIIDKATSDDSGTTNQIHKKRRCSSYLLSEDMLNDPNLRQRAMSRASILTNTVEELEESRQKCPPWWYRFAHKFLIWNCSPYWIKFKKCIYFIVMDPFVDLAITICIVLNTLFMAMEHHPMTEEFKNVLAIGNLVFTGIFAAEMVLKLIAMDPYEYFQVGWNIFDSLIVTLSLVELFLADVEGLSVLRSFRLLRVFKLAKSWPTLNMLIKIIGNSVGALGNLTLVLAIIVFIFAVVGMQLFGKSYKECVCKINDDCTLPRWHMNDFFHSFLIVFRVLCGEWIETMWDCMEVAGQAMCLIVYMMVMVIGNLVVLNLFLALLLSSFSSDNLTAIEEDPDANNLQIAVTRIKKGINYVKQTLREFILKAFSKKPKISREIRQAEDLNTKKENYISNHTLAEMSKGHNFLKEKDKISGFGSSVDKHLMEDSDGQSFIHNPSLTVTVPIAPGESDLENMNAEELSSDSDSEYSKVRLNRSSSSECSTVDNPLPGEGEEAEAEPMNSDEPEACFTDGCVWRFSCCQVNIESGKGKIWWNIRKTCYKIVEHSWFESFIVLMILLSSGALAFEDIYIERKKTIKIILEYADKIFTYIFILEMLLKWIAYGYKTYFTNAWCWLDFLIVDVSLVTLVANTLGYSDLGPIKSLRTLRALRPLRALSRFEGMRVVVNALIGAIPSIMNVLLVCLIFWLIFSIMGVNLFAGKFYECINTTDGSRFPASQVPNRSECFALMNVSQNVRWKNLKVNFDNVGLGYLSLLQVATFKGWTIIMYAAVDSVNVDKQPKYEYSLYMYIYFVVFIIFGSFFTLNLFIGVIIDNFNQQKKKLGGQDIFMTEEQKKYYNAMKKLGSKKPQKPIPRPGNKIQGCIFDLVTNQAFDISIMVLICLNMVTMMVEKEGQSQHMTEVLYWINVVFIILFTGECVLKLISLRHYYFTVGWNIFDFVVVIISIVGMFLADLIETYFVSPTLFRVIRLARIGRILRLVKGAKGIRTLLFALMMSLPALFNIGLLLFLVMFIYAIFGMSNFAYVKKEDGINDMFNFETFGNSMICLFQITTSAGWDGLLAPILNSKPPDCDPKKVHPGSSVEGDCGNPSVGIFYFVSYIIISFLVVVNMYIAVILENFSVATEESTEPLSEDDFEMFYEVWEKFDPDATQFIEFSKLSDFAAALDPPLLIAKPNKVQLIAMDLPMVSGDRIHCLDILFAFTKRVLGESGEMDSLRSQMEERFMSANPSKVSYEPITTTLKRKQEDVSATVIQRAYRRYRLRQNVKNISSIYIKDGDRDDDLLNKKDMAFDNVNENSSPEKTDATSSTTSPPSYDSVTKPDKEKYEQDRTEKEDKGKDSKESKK

The assay has as its target human NaV subtype, like NaV 1.7 (Homo sapiens, UniProt Q15858). The assay is described as follows: E-VIPR optical membrane potential assay with electrical stimulation. It is filed as cell-based. To be noted: active against one or more sodium channels; Table 3 does not name the assay or NaV subtype; read-out: Binned Activity Data (IC50). An excerpt:
Assays for Detecting and Measuring NaV Inhibition Properties of Compound E-VIPR Optical Membrane Potential Assay Method with Electrical Stimulation
Sodium channels are voltage-dependent proteins that can be activated by inducing membrane voltage changes by applying electric fields. The electrical stimulation instrument and methods of use are described in Ion Channel Assay Methods PCT/US01/21652, herein incorporated by reference and are referred to as E-VIPR. The instrument comprises a microtiter plate handler, an optical system for exciting the coumarin dye while simultaneously recording the coumarin and oxonol emissions, a waveform generator, a current- or voltage-controlled amplifier, and a device for inserting electrodes in well. Under integrated computer control, this instrument passes user-programmed electrical stimulus protocols to cells within the wells of the microtiter plate.
24 hours before the assay on E-VIPR, HEK cells expressing human NaV subtype, like NaV 1.7, are seeded in 384-well poly-lysine coated plates at 15,000-20,000 cells per well. Other subtypes are performed in an analogous mode in a cell line expressing the NaV of interest. HEK cells are grown in media (exact composition is specific to each cell type and NaV subtype) supplemented with 10% FBS (Fetal Bovine Serum, qualified; GibcoBRL #16140-071) and 1% Pen-Strep (Penicillin-Streptomycin; GibcoBRL #15140-122). Cells are grown in vented cap flasks, in 90% humidity and 10% CO2, to 100% confluence. They are usually split by trypsinization 1:10 or 1:20, depending on scheduling needs, and grown for 2-3 days before the next split.
Bath 1 buffer. Glucose 10 mM (1.8 g/L), Magnesium Chloride (Anhydrous), 1 mM (0.095 g/L), Calcium Chloride, 2 mM (0.222 g/L), HEPES 10 mM (2.38 g/L), Potassium Chloride, 4.5 mM (0.335 g/L), Sodium Chloride 160 mM (9.35 g/L).
Hexyl Dye Solution: Bath 1 Buffer+0.5% β-cyclodextrin (make this prior to use, Sigma #C4767), 8 μM CC2-DMPE+2.5 μM DiSBAC6(3). To make the solution Add volume of 10% Pluronic F127 stock equal to volumes of CC2-DMPE+DiSBAC6(3). The order of preparation is first mix Pluronic and CC2-DMPE, then add DiSBAC6(3) while vortexing, then add Bath 1+β-Cyclodextrin.
1) Pre-spot compounds (in neat DMSO) into compound plates. Vehicle control (neat DMSO), the positive control (20 mM DMSO stock tetracaine, 125 μM final in assay) and test compounds are added to each well at 160× desired final concentration in neat DMSO. Final compound plate volume will be 80 μL (80-fold intermediate dilution from 1 μL DMSO spot; 160-fold final dilution after transfer to cell plate). Final DMSO concentration for all wells in assay is 0.625%.
2) Prepare Hexyl Dye Solution.
3) Prepare cell plates. On the day of the assay, medium is aspirated and cells are washed three times with 100 μL of Bath 1 Solution, maintaining 25 μL residual volume in each well.
4) Dispense 25 μL per well of Hexyl Dye Solution into cell plates. Incubate for 20-35 minutes at room temp or ambient conditions.
5) Dispense 80 μL per well of Bath 1 into compound plates. Acid Yellow-17 (1 mM) is added and Potassium Chloride can be altered from 4.5 to 20 mM depending on the NaV subtype and assay sensitivity.
6) Wash cell plates three times with 100 μL per well of Bath1, leaving 25 μL of residual volume. Then transfer 25 uL per well from Compound Plates to Cell Plates. Incubate for 20-35 minutes at room temp/ambient condition
7) Read Plate on E-VIPR. Use the current-controlled amplifier to deliver stimulation wave pulses for typically 9 seconds and a scan rate of 400 Hz. A pre-stimulus recording is performed for 0.5 seconds to obtain the un-stimulated intensities baseline. The stimulatory waveform is applied for 9 seconds followed by 0.5 seconds of post-stimulation recording to examine the relaxation to the resting state.
Regarding `COc1ccc(C(=O)N2CCC3(CC2)c2ccc(C(=O)C(F)(F)F)n2C[C@@H](C)N3C)cc1C(F)(F)F` [Compound 61], the IC50 lay in the range of 2000 to 5000 nM.
Regarding `COc1cc(C(=O)N2CCC3(CC2)NC(C)Cn2c(C(F)(F)F)ccc23)ccc1OC(C)C` (centres unmarked) [Compound 320], the IC50 was at most 2000 nM.
Next, `CN1CCn2c(C(=O)C(F)(F)F)ccc2C12CCN(C(=O)c1ccc(Oc3ccccc3)cc1)CC2` [Compound 402]: 2000 to 5000 nM; `COc1cc(C(=O)N2CCC3(CC2)c2ccc(C(F)(F)F)n2CCN3CC2CC2)ccc1OC(C)C` [Compound 574]: at most 2000 nM; `CC(C)Oc1ccc(C(=O)N2CCC3(CC2)c2ccc(C(F)(F)F)n2CCN3C)cc1Cl` [Compound 100]: at most 2000 nM.
For `CC[C@H](C)Oc1ccc(C(=O)N2CCC3(CC2)c2c(F)cc(C(F)(F)F)n2CCN3C)cc1OC` [Compound 141], the IC50 was at most 2000 nM.
Next, `Cc1cc(C(=O)N2CCC3(CC2)c2ccc(C(F)(F)F)n2CCN3C2CC2)ccc1S(=O)(=O)C(C)C` [Compound 492]: at most 2000 nM; `Cc1cc(C(=O)N2CCC3(CC2)c2ccc(C(F)(F)F)n2CCN3C2CC2)ccc1OC(C)C` [Compound 333]: at most 2000 nM.
`CC(=O)c1ccc2n1CCN(C)C21CCN(C(=O)c2ccc(OC(C)C)cc2)CC1` [Compound 342]: the half-maximal inhibitory concentration (IC50) is above 5000 nM.
The result for `COCCOc1ccc(C(=O)N2CCC3(CC2)c2ccc(C(F)(F)C(F)(F)F)n2CCN3C)cc1OC` [Compound 245] reads at most 2000 nM; that for `CN1CCn2c(C(=O)C(F)(F)F)ccc2C12CCN(C(=O)c1ccc(O)c(Cl)c1)CC2` [Compound 635], 2000 to 5000 nM; that for `CC(C)Oc1ccc(C(=O)N2CCC3(CC2)c2c(Cl)cc(C(F)(F)F)n2CCN3C)c(F)c1` [Compound 602], at most 2000 nM.
With `COc1cc(C(=O)N2CCC3(CC2)NC(C)(C)Cn2c(C(=O)C(F)(F)F)ccc23)ccc1C(C)(C)C` [Compound 705], the IC50 was at most 2000 nM.
With `CC(C)Oc1ccc(C(=O)N2CCC3(CC2)c2ccc(C(=O)C(F)(F)F)n2C(C)CN3C)cc1Cl` (centres unmarked) [Compound 325], the 50% inhibitory concentration (IC50) is at most 2000 nM.
`CC(C)Nc1ncccc1C(=O)N1CCC2(CC1)c1ccc(C(F)(F)F)n1CCN2C` [Compound 718]: the IC50 was in the range of 2000 to 5000 nM.
As to `CNS(=O)(=O)c1ccc(C(=O)N2CCC3(CC2)c2ccc(C(F)(F)F)n2CCN3C)cc1C` [Compound 7], the IC50 was at most 2000 nM.
As for `CN1CCn2c(C(=O)C(C)(C)C)ccc2C12CCN(C(=O)c1ccc(S(=O)(=O)C(F)(F)F)cc1)CC2` [Compound 93], the IC50 is at most 2000 nM.
The result for `COc1cc(C(=O)N2CCC3(CC2)c2ccc(C(F)(F)F)n2CCN3C)ccc1OCCOC(F)(F)F` [Compound 168] reads at most 2000 nM; that for `COc1ccc(C(=O)N2CCC3(CC2)c2ccc(C(=O)C(F)(F)F)n2CCN3C)cc1OC(C)C` [Compound 455], at most 2000 nM; that for `CC[C@@H](C)Oc1ccc(C(=O)N2CCC3(CC2)c2ccc(Cl)n2CCN3C)cc1OC` [Compound 294], at most 2000 nM.
In the case of `CC(C)Oc1ccc(C(=O)N2CCC3(CC2)c2cc(C(=O)C(F)(F)F)cn2C(C)(C)CN3C)cc1F` [Compound 391], the IC50 was above 5000 nM.
Consider `Cc1cc(S(=O)(=O)C(C)C)ccc1C(=O)N1CCC2(CC1)c1ccc(C(F)(F)F)n1CCN2C` [Compound 498], for which the half-maximal inhibitory concentration (IC50) was at most 2000 nM.
Next, `O=C(c1ccc(Oc2ccccc2)cc1)N1CCC2(CC1)NCCn1c(C(F)(F)F)ccc12` [Compound 374]: above 5000 nM; `Cc1cc(C(=O)N2CCC3(CC2)c2ccc(CC(F)(F)F)n2CCN3C)ccc1C(C)(C)O` [Compound 593]: at most 2000 nM.
Next, `COc1cc(C(=O)N2CCC3(CC2)c2ccc(C(F)(F)F)n2CCN3C)ccc1OC(C)(C)C` [Compound 158]: at most 2000 nM.
`Cc1cc(C(=O)N2CCC3(CC2)NCCn2c(C(F)(F)F)ccc23)ccc1OC(C)C` [Compound 356]: the IC50 was at most 2000 nM.
For the molecule `CC(C)Oc1ccc(C(=O)N2CCC3(CC2)c2ccc(Cl)n2CCN3C)cc1Cl` [Compound 250], the half-maximal inhibitory concentration (IC50) was at most 2000 nM.
Next, `CN1CCn2c(C(F)(F)F)cc(F)c2C12CCN(C(=O)c1ccc(CC(C)(C)O)cc1)CC2` [Compound 313]: at most 2000 nM.
For the molecule `COc1cc(C(=O)N2CCC3(CC2)c2c(C#N)cc(C(F)(F)F)n2CCN3C)ccc1OC(C)C` [Compound 742], the IC50 fell in the range of 2000 to 5000 nM.
Next, `Cc1cc(C(=O)N2CCC3(CC2)NC(C)(C)Cn2c(C(=O)C(F)(F)F)ccc23)ccc1O` [Compound 318]: at most 2000 nM.
Next, `CNS(=O)(=O)c1ccc(C(=O)N2CCC3(CC2)c2ccc(C(=O)C(F)(F)F)n2CCN3C)cc1C` [Compound 194]: at most 2000 nM.
Next, `CC(C)Oc1ccc(C(=O)N2CCC3(CC2)c2ccc(C(=O)C(F)(F)F)n2CCN3C)cc1C#N` [Compound 51]: at most 2000 nM.
As for `Cc1cc(C(=O)N2CCC3(CC2)c2ccc(CC(F)(F)F)n2CCN3C)ccc1OC(C)C` [Compound 279], the IC50 is at most 2000 nM.
The result for `CCCOc1ccc(C(=O)N2CCC3(CC2)c2ccc(Cl)n2CCN3C)cc1` [Compound 590] reads 2000 to 5000 nM.
`CC(C)Nc1ccnc2c(C(=O)N3CCC4(CC3)c3ccc(C(F)(F)F)n3CCN4C)cnn12` [Compound 162]: the IC50 was at most 2000 nM.
Consider `COc1ccc(C(=O)N2CCC3(CC2)c2ccc(C(=O)C4CC4)n2CCN3C)cc1C` [Compound 521], for which the IC50 was at most 2000 nM.
The result for `Cc1cc(C)n2ncc(C(=O)N3CCC4(CC3)c3ccc(C(F)(F)F)n3CCN4C)c2n1` [Compound 673] reads at most 2000 nM.
Turning to `CC(C)Oc1ccc(C(=O)N2CCC3(CC2)c2ccc(C(=O)C(F)(F)F)n2C[C@H](C)N3C)cc1F` [Compound 439], the IC50 was at most 2000 nM.
In the case of `Cc1cc(C(=O)N2CCC3(CC2)c2ccc(C(F)(F)F)n2CCN3C)ccc1C(C)(C)O` [Compound 98], the IC50 is at most 2000 nM.
With `Cc1cc(C(=O)N2CCC3(CC2)NC(C)(C)Cn2c(C(F)(F)F)ccc23)ccc1OC(C)C` [Compound 598], the half-inhibitory concentration (IC50) was at most 2000 nM.
As to `COc1cc(C(=O)N2CCC3(CC2)c2ccc(C(=O)C(F)(F)F)n2CCN3C)ccc1OC(C)C` [Compound 315], the IC50 was at most 2000 nM.
Next, `CN1CCn2c(C(=O)C(F)(F)F)ccc2C12CCN(C(=O)c1ccc(C(C)(C)O)c(F)c1)CC2` [Compound 575]: at most 2000 nM; `CN1CCn2c(C(F)(F)F)cc(F)c2C12CCN(C(=O)c1ccc(C3(O)CCC3)c(F)c1)CC2` [Compound 112]: at most 2000 nM.
The result for `COc1ccc(C(=O)N2CCC3(CC2)c2ccc(C(=O)C(F)(F)F)n2C[C@H](C)N3C)cc1C` [Compound 14] reads at most 2000 nM; that for `COCC#Cc1ccc(C(=O)N2CCC3(CC2)c2ccc(C(C)=O)n2CCN3C)cc1F` [Compound 615], above 5000 nM; that for `CC1(C)CNC2(CCN(C(=O)c3ccc(S(=O)(=O)NC4CC4)cc3)CC2)c2ccc(C(F)(F)F)n21` [Compound 76], above 5000 nM.
`CC(C)COc1ccc(C(=O)N2CCC3(CC2)c2ccc(C(=O)C(F)(F)F)n2CCN3C)nc1` [Compound 712]: the IC50 is at most 2000 nM.
Next, `CN1CCn2c(Cl)ccc2C12CCN(C(=O)c1ccc(C3(O)CCCC3)cc1)CC2` [Compound 301]: above 5000 nM.
For `CN1CCn2c(C(F)(F)F)ccc2C12CCN(C(=O)c1ccc(Cl)cc1)CC2` [Compound 403], the IC50 was above 5000 nM.
The result for `C[C@H]1Cn2c(C(=O)C(F)(F)F)ccc2C2(CCN(C(=O)c3ccc(S(=O)(=O)C(F)(F)F)cc3)CC2)N1C` [Compound 649] reads at most 2000 nM.
